Legend:
[1] = Determination of lipophilicity and pKa values by HPLC; assay type: physicochemical; settings: HPLC method
Protocol: The physicochemical parameters of the rhenium complexes, i.e. lipophilicity log P, log D(pH 7.4), and pKa (Table 2) were determined using HPLC methods (Braumann, T.; Grimme, L. H. Determination of Hydrophobic Parameters for Pyridazinone Herbicides by Liquid-Liquid Partition and Reversed-Phase High-Performance Liquid Chromatography. J. Chromatogr. 1981, 206, 7-15; Stytli, C.; Theobald, A. E. Determination of Ionization Constants of Radiopharmaceuticals in Mixed Solvents by HPLC. Appl. Radiat. Isot., 1987, 38, 701-708; Johannsen, B.; Scheunemann, M.; Spies, H.; Brust, P.; Wober, J.; Syhre, R.; Pietzsch, H.-J. Technetium(V) and Rhenium(V) Complexes for 5-HT2A Serotonin Receptor Binding: Structure-Affinity Considerations. Nucl. Med. Biol., 1996, 23, 429-438; and Johannsen, B.; Berger, R.; Brust, P.; Pietzsch, H.-J; Scheunemann, M.; Seifert, S.; Spies, H.; Syhre, R. Structural Modification of Receptor-Binding Technetium-99m Complexes in Order to Improve Brain Uptake. Eur. J. Nucl. Med. 1997, 24, 316-319). […] Since log D(pH 7.4) is a composite measure of log P and pKa, the log D(PH 7.4) of Re-Compound B (1.9) is also higher than that of Re-Compound A (1.1). […] With pKa values >9 for complexes Re-Compound C and Re-Compound D, the resulting low log D(PH 7.4) values of −0.5 (Re-Compound C) and 0.7 (Re-Compound D) are not surprising, since the complexes would exist in a protonated form at pH 7.4.
Determination of Lipophilicity and pKa Values. The lipophilicity and pKa values of all complexes were determined using HPLC methods described previously (Stylli, C.; Theobald, A. E. Determination of Ionization Constants of 4 Radiopharmaceuticals in Mixed Solvents by HPLC. Appl. Radiat. Isot., 1987, 38, 701-708; Johannsen, B.; Scheunemann, M.; Spies, H.; Brust, P.; Wober, J.; Syhre, R.; Pietzsch, H.-J. Technetium(V) and Rhenium(V) Complexes for 5-HT2A Serotonin Receptor Binding: Structure-Affinity Considerations. Nucl. Med. Biol., 1996, 23, 429-438; and Johannsen, B.; Berger, R.; Brust, P.; Pietzsch, H.-J.; Scheunemann, M.; Seifert, S.; Spies, H.; Syhre, R. Structural Modification of Receptor-Binding Technetium-99m Complexes in Order to Improve Brain Uptake. Eur. J. Nucl. Med. 1997, 24, 316-319). […] The mobile phase was acetonitrile:phosphate buffer (0.01 M), 3:1, v/v, with the aqueous buffer adjusted to the desired pH between 3 and 11. The capacity factor (k′) was calculated for each determination (Braumann, T.; Grimme, L. H. Determination of Hydrophobic Parameters for Pyridazinone Herbicides by Liquid-Liquid Partition and Reversed-Phase High-Performance Liquid Chromatography. J. Chromatogr. 1981, 206, 7-15; El Tayer, N.; van der Waterbeemd, H.; Testa, B. Lipophilicity Measurements of Protonated Basic Compounds by Reversed-Phase High-Performance Liquid Chromatography. II. Procedure for the Determination of a Lipophilic Index Measured by Reversed-Phase High Performance Liquid Chromatography. J. Chromatogr. 1985, 320, 305-312; and Minick, D. J.; Frenz, J. H.; Patrick, M. A.; Brent, D. A. A Comprehensive Method for Determining Hydrophobicity Constants by Reversed-Phase High-Performance Liquid Chromatography. J. Med. Chem., 1988, 31, 1923-1933) and the partition coefficient at a given pH (D or log D) were calculated from the equation: log D=a log k′+b where the parameters a and b are predetermined using standard amines. The fitted points of inflection from the sigmoidal DHPLC/pH profiles permit calculation of the pKHPLC(Stylli, C.; Theobald, A. E. Determination of Ionization Constants of Radiopharmaceuticals in Mixed Solvents by HPLC. Appl. Radiat. Isot., 1987, 38, 701-708). The aqueous ionization constants pKa were calculated from the pKHPLC values after correction with a predetermined correction factor obtained using standard amine compounds. Log P values of the neutral complexes were estimated from the respective upper plateau of the sigmoidal log D/pH curve in the alkaline range.

B16/F0 cells = test: Tumor-cell uptake in the presence of DTG; assay type: cell-based, murine; settings: 37° C.; for IC50: read-out: DTG concentration at 50% maximal inhibition of complex uptake, intact B16/F0 cells, DTG as the inhibitor
Source text: J. Labelled Compd. Radiopharm. 1994, 35, 242-244; Vilner, B. J.; John, C. S.; Bowen, W. D. Sigma-I and Sigma-2 Receptors Are Expressed in a Wide Variety of Human and Rodent Tumor Cell Lines. Cancer Res. 1995, 55, 408-413; and John, C. S.; Vilner, B. J.; Gulden, M. E.; Efange, S. M. N.; Langason, R. B.; Moody, T. W.; Bowen, W. D. Synthesis and Pharmacological Characterization of 4-[^125I]-N-(N-Benzylpiperidin-4-yl)-4-iodobenzamide: A High Affinity σ Receptor Ligand for Potential Imaging of Breast Cancer. […] Pre-incubation of the tumor cells with DTG (90 μM), 30 min prior to the uptake experiments with the ^99mTc-complexes, yields a lower tumor-cell uptake for complexes Tc-(Compound A) (29% less), Tc-(Compound C) (33% less), and Tc-(Compound D) (32% less) at 37° C. (FIG. 4). Additional dose-response experiments conducted with intact B16/F0 cells at 37° C. with Tc-(Compound C) and DTG as the inhibitor (FIG. 3) show a DTG concentration-dependent decrease in the uptake of the complex.
The effect of the inhibitor DTG on cell uptake of these complexes was studied by addition of the inhibitor at various concentrations to the cell suspension 30 min prior to addition of the ^99mTc-complexes. Fresh DTG stock solutions were made by dissolving DTG (3.0 mg, 12.5 μmol) in 0.38 mL PBS and 0.12 mL hydrochloric acid (0.1 N) and subjecting the mixture to ultrasound until a clear solution was obtained, followed by the addition of 0.50 mL FBS to produce a neutral solution at pH 7.4. The stock solutions were diluted by an appropriate amount of S-MEM, and aliquots between 5 μL and 25 μL were added to the cell suspension such that the final concentration of DTG was between 0.02 μM and 120 μM in a total cell suspension volume of 350 μL.

[2] = test system: B16/F0 murine melanoma cells; test: In-vitro tumor-cell uptake, melanoma cells; assay type: cell-based
Protocol: In-Vitro Tumor-Uptake Studies. Tumor-cell uptake studies in B16/F0 murine melanoma cells were performed with complexes Tc-(Compound A-D and H-M) at 37° C. and 4° C. Additionally, tumor-cell uptake of complex Tc-(Compound A) was investigated in another rapidly dividing MCF-7 human breast cancer cell line.
In-Vitro Cell Studies. Murine B16/F0 melanoma cells and human MCF-7 breast cancer cells were obtained from American Type Culture Collection, Manassas Va., (ATCC) and were grown in T-175 flasks in 14 mL Dulbecco's Modified Eagle Medium (D-MEM; Gibco, Life Technology, Gaithersburg, Md.) containing 4500 mg/L D-glucose, L-glutamine, and pyridoxine hydrochloride, 110 mg/L sodium pyruvate, 10% fetal bovine serum (FBS), 0.2% gentamicin and 0.5% penicillin-streptomycin solution. All cells were harvested from cell culture flasks by trypsinization with 1 mL trypsin-EDTA solution (0.25% trypsin, 1 mM EDTA×4 Na) (Gibco). After being washed with 12 mL Dulbecco's Phosphate-Buffered Saline (PBS) (Gibco), pH 7.2 (Ca^2+- and Mg^2+-free; g/L KCl, 0.20; KH2PO4, 0.20; NaCl, 8.00; Na2HPO4, 1.15), the cells were counted and resuspended in 8 mL S-MEM (Gibco) (Ca^2+ free, with reduced Mg^2+ content) and stored at 4° C. until use.
For in-vitro tumor-cell accumulation studies, 5×10^6 cells in polypropylene test tubes were incubated at 37° C. or 4° C., with intermittent agitation with 1-2 μCi (5 μL) ^99mTc-complex Tc-(Compound A-D) in a total volume of 350 μL S-MEM. At appropriate time intervals the tubes were vortexed and 8-μL samples were layered on 350 μL cold FBS in a 400-μL Eppendorf microcentrifuge tube. After centrifugation at 15,000 rpm for 2 min, the tubes were frozen in a dry ice-acetone bath. While still frozen, the bottom tip of the microcentrifuge tube containing the cell pellet was cut and placed in a counting tube. The remaining portion of the tube with the supernatant was placed in a separate counting tube. Both fractions were counted for radioactivity in a γ-counter (WALLAC, 1480 WIZARD 3″™). The amount of supernatant in the cell pellet was determined to be <1% in separate experiments. The percentage cell uptake of the ^99mTc-complex was calculated as: % uptake=[cpm(pellet)]/[cpm(pellet)+cpm(supernatant)]×100

CCN(CC)CCN1CC[S][Re]2(=[O])[S]CC[N]2C(=O)C1 (stereo not shown) [Re-Compound A, [ReOAADT]-C2—NEt2]
log P [1]: 1.6 | pKa [1]: 7.7 | log D(pH 7.4) [1]: 1.1

CCCCN(CCCC)CCN1CC[S][Re]2(=[O])[S]CC[N]2C(=O)C1 (stereo not shown) [Re-Compound B, [ReOAADT]-C2—NBu2]
log P [1]: 3.3 | pKa [1]: 7.7 | log D(pH 7.4) [1]: 1.9

CCCCN(CCCC)CCCN1CC[S][Re]2(=[O])[S]CC[N]2C(=O)C1 (stereo not shown) [Re-Compound D, [ReOAADT]-C3—NBu2]
log D(pH 7.4) [1]: 0.7

CCN(CC)CCN1CC[S][Tc]2(=[O])[S]CC[N]2C(=O)C1 (stereo not shown) [Tc-(Compound A)]
IC50 (B16/F0 cells): 21 µM

CCN(CC)CCCN1CC[S][Tc]2(=[O])[S]CC[N]2C(=O)C1 (stereo not shown) [Tc-(Compound C)]
IC50 (B16/F0 cells): 49 µM

CCCCN(CCCC)CCCN1CC[S][99Tc]2(=[O])[S]CC[N]2C(=O)C1 (stereo not shown) [Tc-(Compound D)]
lower tumor-cell uptake after pre-incubation with DTG (B16/F0 cells; DTG 90 μM, 30 min prior): 32% | decrease in cell uptake, incubation temperature from 37° C. to 4° C. ([2]; 4° C. vs 37° C.): 23% | maximal cell uptake ([2]; 37° C., B16/F0 cell line): 68%

CCCCN(CCCC)CCCN1CC[S][Tc]2(=[O])[S]CC[N]2C(=O)C1 (stereo not shown) [Tc-(Compound D)]
IC50 (B16/F0 cells): 52 µM

— patent publication US7321027B2, “Small technetium-99m and rhenium labeled agents and methods for imaging tumors” (President and Fellows of Harvard College, priority 2000, dated 2008)
